Values of other authors, collected in US8492371B2, “Compounds as cannabinoid receptor ligands” (priority 2009, dated 2013).

What was measured:
microglial = details: in vitro; blocked by SR144528; cited from earlier work
[1] = low doses, apolipoprotein E knockout mice; inhibited by SR144528; cited from earlier work

| Compound | effect on β-amyloid-induced microglial activation and neurotoxicity (microglial) | progression of atherosclerotic lesions [1] |
| --- | --- | --- |
| CCCC(C)(C)c1ccc2c(c1)OC(C)(C)[C@@H]1CC=C(C)C[C@@H]21 [JWH-133] | abrogated β-amyloid-induced microglial activation and neurotoxicity |  |
| (−)-Δ^9-Tetrahydrocannabinol [THC] |  | slowed the progression of atherosclerotic lesions |
